Experimental data taken from patent publication US20170217914A1, “Novel Triarylethylene Compounds and Methods Using Same” (The Penn State Research Foundation, priority 2014, published 2017).
Read-outs that look alike come from different tables or passages of the source.

Legend:
[1] = test system: MCF-7 (ER-positive) human breast cancer cell line; assay: MTT cell viability assay, MCF-7 cells; conditions: for IC50: Homo sapiens; for anticancer activity in initial screening: 0.5-25 μM, 48 h (FIG. 3); for cytotoxic activity: MTT, 72 h, versus Ospemifene and Tamoxifen
Method: (§2) An MTT solution was added to each well and incubated for 3 h at 37° C. After 3 h, DMSO was added and the optical density was measured at 570 nm using a 96-well multiscanner (Dynex Technologies, MRX Revelation; Chantilly, Va., USA). Backgrounds were subtracted at 630 nm. IC50 values were calculated by non-linear regression analysis using Prism software.
(§3) The effects of novel triarylethylene derivatives on the cell viability were determined by the MTT uptake method using previously described methods (Kaur et al., 2014, Eur. J. Med. Chem. 86:211-218). Briefly, 3000 cells were incubated with various concentrations of compounds in triplicate in a 96-well plate for 72 h at 37° C. An MTT solution was added to each well and incubated for 3 h at 37° C. After 3 h, DMSO was added and the optical density was measured at 570 nm using a 96-well multiscanner (Dynex Technologies, MRX Revelation; Chantilly, Va., USA). Backgrounds were subtracted at 630 nm. IC50 values were calculated by non-linear regression analysis using Prism software.

[2] = test system: MDA-MB-231 (ER-negative) human breast cancer cell line; assay: MTT cell viability assay, MDA-MB-231 cells; conditions: for IC50: Homo sapiens; for anticancer activity in initial screening: 0.5-25 μM, 48 h (FIG. 3); for cytotoxic activity: MTT, 72 h, versus Ospemifene and Tamoxifen
Method: as §2, §3

MMP-9 = assay: Western blot, MMP-9 expression in breast cancer cells; type: cell-based, human; conditions: MDA-MB-231 and MCF-7 cells, 24 h
Method: (§1) To determine the effect of novel triarylethylene derivatives on proteins involved in metastasis, and adhesion, whole-cell extracts were prepared by subjecting cells to lysis in RIPA buffer supplemented with protease and phosphatase inhibitor cocktails using previously described methods (Pandey et al., 2014, Exp. Hematol. 42:883-896). Lysates were spun at 15,000 rpm for 10 minutes to remove insoluble material. Supernatant were collected and kept at −80° C. Lysates were resolved by SDS-PAGE. After electrophoresis, the proteins were electro-transferred to PVDF membranes, blotted with the relevant antibodies, and detected by enhanced chemo-luminescence reagent.

c-Myc = assay: Western blot, c-Myc expression in breast cancer cells; type: cell-based, human; conditions: MDA-MB-231 and MCF-7 cells, 24 h
Method: as §1

caveolin = assay: Western blot, caveolin expression in breast cancer cells; type: cell-based, human; conditions: MDA-MB-231 and MCF-7 cells, 24 h
Method: as §1

[3] = MCF7, 72 h, read-out: MCF-7 IC50
[4] = MDA-MB-231, 72 h, read-out: MDA-MB-231 IC50
[5] = MCF7, 48 h, read-out: MCF-7 (ER positive) IC50
[6] = MCF7, 96 h, read-out: MCF-7 (ER positive) IC50
[7] = MDA-MB-231, 48 h, read-out: MDA-MB-231 (ER− negative) IC50
[8] = MDA-MB-231, 96 h, read-out: MDA-MB-231 (ER− negative) IC50

Molecule	melting point [°C]	IC50 [1, 3] [µM]	IC50 [2, 4] [µM]	further results
COc1ccc(/C(=C(/CCNC(=O)C(=O)N2CCCCC2)c2ccccc2)c2ccccc2)cc1 [Compound 26, (Z)—N-(4-(4-Methoxyphenyl)-3,4-diphenylbut-3-enyl)-2-oxo-2-(piperidin-1-yl)acetamide]	125 to 127	> 50	> 50	
CS(=O)(=O)OCCOc1ccc(/C(=C(/CCCl)c2ccccc2)c2ccccc2)cc1 [Compound 2, (Z)-2-{4-(4-chloro-1,2-diphenylbut-1-enyl}phenoxy) ethyl methanesulfonate]	84 to 86			anticancer activity in initial screening [1]: inactive; anticancer activity in initial screening [2]: inactive
COc1ccc(/C(=C(/CCNC(=O)C(=O)N2CCOCC2)c2ccccc2)c2ccccc2)cc1 [Compound 25, (Z)—N-(4-(4-Methoxyphenyl)-3,4-diphenylbut-3-enyl)-2-morpholino-2-oxoacetamide]	118.4 to 119.3	43.4 ± 7.5	20 ± 9.8	cytotoxic activity [2]: good activity
(Z)-Phenyl-4-(4-methoxyphenyl)-3,4-diphenylbut-3-enylcarbamate [Compound 14]				expression of MMP-9 (MMP-9): modulated the expression; cytotoxic activity [1]: much more effective than the standards; cytotoxic activity [2]: much more effective than the standards
COc1ccc(/C(=C(/CCNC(=O)C(=O)NCc2ccccc2)c2ccccc2)c2ccccc2)cc1 [Compound 22, (Z)—N1-Benzyl-N2-(4-(4-methoxyphenyl)-3,4-diphenylbut-3-enyl)oxalamide]	169 to 172	> 50	11.5 ± 3.8	expression of MMP-9 (MMP-9): inhibited the expression; expression of c-Myc (c-Myc): inhibited the expression; expression of caveolin (caveolin): did not inhibit the expression; cytotoxic activity [2]: selectively cytotoxic
O=C(NCC/C(=C(\c1ccccc1)c1ccc(OCCO)cc1)c1ccccc1)Oc1ccccc1 [Compound 8, (Z)-Phenyl 4-{4-(2-hydroxyethoxy)phenyl}-3,4-diphenylbut-3-enylcarbamate]	121 to 123			anticancer activity in initial screening [1]: more potent than Ospemifene; IC50 [1, 5]: 76 µM; IC50 [1, 6]: 50 µM; anticancer activity in initial screening [2]: more potent than Ospemifene; IC50 [2, 7]: > 100 µM; IC50 [2, 8]: 62.3 µM
[N-]=[N+]=NCCOc1ccc(/C(=C(/CCN=[N+]=[N-])c2ccccc2)c2ccccc2)cc1 [Compound 5, (Z)-[4-azido-1-{4-(2-azidoethoxy)phenyl}but-1-ene-1,2-diyl]dibenzene]				anticancer activity in initial screening [1]: ineffective; anticancer activity in initial screening [2]: ineffective
COc1ccc(/C(=C(/CCNC(=O)NCc2ccccc2)c2ccccc2)c2ccccc2)cc1 [Compound 16, (Z)-1-Benzyl-3-(4-(4-methoxyphenyl)-3,4-diphenylbut-3-enyl) urea]	158 to 160	> 50	> 50	
COc1ccc(/C(=C(/CCNC(=O)C(=O)NC2CCCCC2)c2ccccc2)c2ccccc2)cc1 [Compound 23, (Z)—N1-Cyclohexyl-N2-(4-(4-methoxyphenyl)-3,4-diphenylbut-3-enyl)oxalamide]	198 to 199	12.1 ± 4.5	12.2 ± 5.3	expression of MMP-9 (MMP-9): inhibited the expression; expression of c-Myc (c-Myc): inhibited the expression; expression of caveolin (caveolin): did not inhibit the expression; cytotoxic activity [1]: remarkable activity; cytotoxic activity [2]: remarkable activity
(Z)-Ethyl-2-(4-(4-methoxyphenyl)-3,4-diphenylbut-3-enylamino)-2-oxoacetate [Compound 15]				expression of MMP-9 (MMP-9): modulated the expression; cytotoxic activity [1]: much more effective than the standards; cytotoxic activity [2]: much more effective than the standards

Further lines, with some results ahead:

melting point [°C]	IC50 [1, 3] [µM]	IC50 [2, 4] [µM]	Molecule	further results
168 to 170	37.2 ± 13.7	> 50	COc1ccc(/C(=C(/CCNC(=O)NC2CCCCC2)c2ccccc2)c2ccccc2)cc1 [Compound 17, (Z)-1-Cyclohexyl-3-(4-(4-methoxyphenyl)-3,4-diphenylbut-3-enyl) urea]	
	> 50	> 50	CCOC(=O)C(=O)NCC/C(=C(\c1ccccc1)c1ccc(OC)cc1)c1ccccc1 [Compound 15, (Z)-Ethyl-2-(4-(4-methoxyphenyl)-3,4-diphenylbut-3-enylamino)-2-oxoacetate]	
159 to 160	> 50	40.7 ± 12.2	CCN(CC)C(=O)NCC/C(=C(\c1ccccc1)c1ccc(OC)cc1)c1ccccc1 [Compound 19, (Z)-1,1-Diethyl-3-(4-(4-methoxyphenyl)-3,4-diphenylbut-3-enyl)urea]	
126 to 128			[N-]=[N+]=NCC/C(=C(\c1ccccc1)c1ccc(OCCO)cc1)c1ccccc1 [Compound 4, (Z)-2-{4-(4-azido-1,2-diphenylbut-1-enyl)phenoxy}ethanol]	anticancer activity in initial screening [1]: activity similar to Ospemifene; IC50 [1, 5]: > 100 µM; IC50 [1, 6]: > 100 µM; IC50 [2, 7]: > 100 µM; IC50 [2, 8]: > 100 µM
88 to 90			[N-]=[N+]=NCCOc1ccc(/C(=C(/CCCl)c2ccccc2)c2ccccc2)cc1 [Compound 3, (Z)-[1-{4-(2-azidoethoxy)phenyl}-4-chlorobut-1-ene-1,2-diyl]dibenzene]	anticancer activity in initial screening [1]: inactive; anticancer activity in initial screening [2]: inactive
126 to 128			COc1ccc(/C(=C(/CCN=[N+]=[N-])c2ccccc2)c2ccccc2)cc1 [Compound 12, (Z)-(4-Azido-1-(4-methoxyphenyl)but-1-ene-1,2-diyl)dibenzene]	
151 to 152	> 50	48.6 ± 14.5	COc1ccc(/C(=C(/CCNC(=O)C(=O)N2CCCC2)c2ccccc2)c2ccccc2)cc1 [Compound 24, (Z)—N-(4-(4-Methoxyphenyl)-3,4-diphenylbut-3-enyl)-2-oxo-2-(pyrrolidin-1-yl)acetamide]	
197 to 198	> 50	> 50	COc1ccc(/C(=C(/CCNC(=O)N2CCCCC2)c2ccccc2)c2ccccc2)cc1 [Compound 20, (Z)—N-(4-(4-Methoxyphenyl)-3,4-diphenylbut-3-enyl)piperidine-1-carboxamide]	
194.2 to 195.4	> 50	> 50	COc1ccc(/C(=C(/CCNC(=O)N2CCCC2)c2ccccc2)c2ccccc2)cc1 [Compound 21, (Z)—N-(4-(4-Methoxyphenyl)-3,4-diphenylbut-3-enyl)pyrrolidine-1-carboxamide]	
87 to 89			COc1ccc(/C(=C(/CCCl)c2ccccc2)c2ccccc2)cc1 [Compound 11, (Z)-(4-Chloro-1-(4-methoxyphenyl)but-1-ene-1,2-diyl)dibenzene]	
139 to 141	> 50	42.8 ± 12.2	COc1ccc(/C(=C(/CCNC(=O)N2CCOCC2)c2ccccc2)c2ccccc2)cc1 [Compound 18, (Z)—N-(4-(4-Methoxyphenyl)-3,4-diphenylbut-3-enyl)morpholine-4-carboxamide]	
